Results published in the supplement of paper PMC10307832.

Experiments:
Experiment in all cases: relative viability (nuclei count vs DMSO), 5 days (fraction); higher = more cells survive
[1] = compound: CCN(CCO)CCCC(C)Nc1ccnc2cc(Cl)ccc12 [Hydroxychloroquine] + NC(=O)Nc1cc(-c2cccc(F)c2)sc1C(=O)N[C@H]1CCCNC1 [AZD7762] (partner 0.2 µM)
Method in brief: (§1)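 Medians of duplicate plates are given as relative viability. That measure is the nuclei count in treated wells divided by the count in vehicle wells. Counts were taken on 4× images of lung cancer cell lines in 1536-well plates, 5 days after pin-tool dosing the day after seeding with one drug alone or a fixed anchor-drug dose plus five library-drug doses (not always all listed) in √10 steps.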

[2] = compound: CCN(CCO)CCCC(C)Nc1ccnc2cc(Cl)ccc12 [Hydroxychloroquine] + Nc1nc2[nH]cc(CCc3ccc(C(=O)N[C@@H](CCC(=O)O)C(=O)O)cc3)c2c(=O)[nH]1 [Pemetrexed] (partner 0.2 µM)
Method in brief: as §1

[3] = compound: CCN(CCO)CCCC(C)Nc1ccnc2cc(Cl)ccc12 [Hydroxychloroquine] + COc1cccc2cc(-c3nc([C@H]4CC[C@H](C(=O)O)CC4)n4ncnc(N)c34)[nH]c12 [OSI-027] (partner 0.5 µM)
Method in brief: as §1

[4] = compound: CCN(CCO)CCCC(C)Nc1ccnc2cc(Cl)ccc12 [Hydroxychloroquine] + COc1cc2c(Oc3ccc(NC(=O)C4(C(=O)Nc5ccc(F)cc5)CC4)cc3F)ccnc2cc1OCCCN1CCOCC1 [Foretinib] (partner 0.25 µM)
Method in brief: as §1

HCC-827 was tested, and the relative viability ([1]; first compound 0.5 µM) was 0.207, the relative viability ([1]; first compound 1.581 µM) was 0.227 and the relative viability ([1]; first compound 5 µM) was 0.237. For the same cell line, the relative viability ([1]; first compound 15.81 µM) was 0.264, the relative viability ([1]; first compound 50 µM) was 0.22 and the relative viability ([2]; first compound 0.5 µM) was 0.225. For the same cell line, the relative viability ([2]; first compound 1.581 µM) was 0.275, the relative viability ([2]; first compound 5 µM) was 0.259 and the relative viability ([2]; first compound 15.81 µM) was 0.259. The relative viability ([2]; first compound 50 µM) was 0.23, the relative viability ([3]; first compound 0.5 µM) was 0.802 and the relative viability ([3]; first compound 1.581 µM) was 0.572. It also gave a relative viability ([3]; first compound 5 µM) of 0.821, a relative viability ([3]; first compound 15.81 µM) of 1.03 and a relative viability ([3]; first compound 50 µM) of 0.763. The relative viability ([4]; first compound 0.5 µM) was 1.13, the relative viability ([4]; first compound 1.581 µM) was 0.956 and the relative viability ([4]; first compound 5 µM) was 1.05. The relative viability ([4]; first compound 15.81 µM) was 1.2 and the relative viability ([4]; first compound 50 µM) was 1.08.

Work on HCC-78 yielded a relative viability ([1]; first compound 0.5 µM) of 0.595, a relative viability ([1]; first compound 1.581 µM) of 0.754 and a relative viability ([1]; first compound 5 µM) of 0.605. For the same cell line, the relative viability ([1]; first compound 15.81 µM) was 0.661, the relative viability ([1]; first compound 50 µM) was 0.641 and the relative viability ([2]; first compound 0.5 µM) was 0.927. For the same cell line, the relative viability ([2]; first compound 1.581 µM) was 0.973, the relative viability ([2]; first compound 5 µM) was 0.902 and the relative viability ([2]; first compound 15.81 µM) was 0.891. For the same cell line, the relative viability ([2]; first compound 50 µM) was 0.959, the relative viability ([3]; first compound 0.5 µM) was 0.377 and the relative viability ([3]; first compound 1.581 µM) was 0.376. For the same cell line, the relative viability ([3]; first compound 5 µM) was 0.366, the relative viability ([3]; first compound 15.81 µM) was 0.323 and the relative viability ([3]; first compound 50 µM) was 0.349. It also gave a relative viability ([4]; first compound 0.5 µM) of 0.602, a relative viability ([4]; first compound 1.581 µM) of 0.498 and a relative viability ([4]; first compound 5 µM) of 0.482. For the same cell line, the relative viability ([4]; first compound 15.81 µM) was 0.488 and the relative viability ([4]; first compound 50 µM) was 0.553.

In the case of NCI-H2085, the relative viability ([1]; first compound 0.5 µM) is reported as 1.03, the relative viability ([1]; first compound 1.581 µM) is reported as 0.933 and the relative viability ([1]; first compound 5 µM) is reported as 0.922. For the same cell line, the relative viability ([1]; first compound 15.81 µM) was 0.927, the relative viability ([1]; first compound 50 µM) was 1.06 and the relative viability ([2]; first compound 0.5 µM) was 0.885. For the same cell line, the relative viability ([2]; first compound 1.581 µM) was 0.773, the relative viability ([2]; first compound 5 µM) was 0.838 and the relative viability ([2]; first compound 15.81 µM) was 0.809. For the same cell line, the relative viability ([2]; first compound 50 µM) was 0.9, the relative viability ([3]; first compound 0.5 µM) was 0.788 and the relative viability ([3]; first compound 1.581 µM) was 0.557. The relative viability ([3]; first compound 5 µM) was 0.625, the relative viability ([3]; first compound 15.81 µM) was 0.693 and the relative viability ([3]; first compound 50 µM) was 0.821. The relative viability ([4]; first compound 0.5 µM) was 1.09, the relative viability ([4]; first compound 1.581 µM) was 1.02 and the relative viability ([4]; first compound 5 µM) was 0.932. It also gave a relative viability ([4]; first compound 15.81 µM) of 0.931 and a relative viability ([4]; first compound 50 µM) of 0.98.

In the case of PC-3 [JPC-3], the relative viability ([1]; first compound 0.5 µM) is reported as 0.905, the relative viability ([1]; first compound 1.581 µM) is reported as 0.882 and the relative viability ([1]; first compound 5 µM) is reported as 0.652. The relative viability ([1]; first compound 15.81 µM) was 0.727, the relative viability ([1]; first compound 50 µM) was 0.774 and the relative viability ([2]; first compound 0.5 µM) was 1.09. The relative viability ([2]; first compound 1.581 µM) was 1.2, the relative viability ([2]; first compound 5 µM) was 1.01 and the relative viability ([2]; first compound 15.81 µM) was 0.323. It also gave a relative viability ([2]; first compound 50 µM) of 0.842, a relative viability ([3]; first compound 0.5 µM) of 0.743 and a relative viability ([3]; first compound 1.581 µM) of 0.642. It also gave a relative viability ([3]; first compound 5 µM) of 0.82, a relative viability ([3]; first compound 15.81 µM) of 0.745 and a relative viability ([3]; first compound 50 µM) of 0.924. It also gave a relative viability ([4]; first compound 0.5 µM) of 1.07, a relative viability ([4]; first compound 1.581 µM) of 1.14 and a relative viability ([4]; first compound 5 µM) of 0.99. For the same cell line, the relative viability ([4]; first compound 15.81 µM) was 1.02 and the relative viability ([4]; first compound 50 µM) was 1.07.

For NCI-H2342, the relative viability ([1]; first compound 0.5 µM) was 0.458, the relative viability ([1]; first compound 1.581 µM) was 0.47 and the relative viability ([1]; first compound 5 µM) was 0.522. It also gave a relative viability ([1]; first compound 15.81 µM) of 0.463, a relative viability ([1]; first compound 50 µM) of 0.449 and a relative viability ([2]; first compound 0.5 µM) of 0.744. It also gave a relative viability ([2]; first compound 1.581 µM) of 0.695, a relative viability ([2]; first compound 5 µM) of 0.75 and a relative viability ([2]; first compound 15.81 µM) of 0.81. The relative viability ([2]; first compound 50 µM) was 0.906, the relative viability ([3]; first compound 0.5 µM) was 0.585 and the relative viability ([3]; first compound 1.581 µM) was 0.578. For the same cell line, the relative viability ([3]; first compound 5 µM) was 0.613, the relative viability ([3]; first compound 15.81 µM) was 0.68 and the relative viability ([3]; first compound 50 µM) was 0.69. For the same cell line, the relative viability ([4]; first compound 0.5 µM) was 0.917, the relative viability ([4]; first compound 1.581 µM) was 0.995 and the relative viability ([4]; first compound 5 µM) was 1.05. For the same cell line, the relative viability ([4]; first compound 15.81 µM) was 1.01 and the relative viability ([4]; first compound 50 µM) was 1.1.

HCC-44 was tested, and the relative viability ([1]; first compound 0.5 µM) was 1.07, the relative viability ([1]; first compound 1.581 µM) was 1.04 and the relative viability ([1]; first compound 5 µM) was 1.08. For the same cell line, the relative viability ([1]; first compound 15.81 µM) was 1.06, the relative viability ([1]; first compound 50 µM) was 0.975 and the relative viability ([2]; first compound 0.5 µM) was 0.635. For the same cell line, the relative viability ([2]; first compound 1.581 µM) was 0.709, the relative viability ([2]; first compound 5 µM) was 0.653 and the relative viability ([2]; first compound 15.81 µM) was 0.655. The relative viability ([2]; first compound 50 µM) was 0.659, the relative viability ([3]; first compound 0.5 µM) was 0.504 and the relative viability ([3]; first compound 1.581 µM) was 0.418. The relative viability ([3]; first compound 5 µM) was 0.43, the relative viability ([3]; first compound 15.81 µM) was 0.511 and the relative viability ([3]; first compound 50 µM) was 0.547.

Work on NCI-H2228 yielded a relative viability ([2]; first compound 0.5 µM) of 0.329, a relative viability ([2]; first compound 1.581 µM) of 0.352 and a relative viability ([2]; first compound 5 µM) of 0.348. The relative viability ([2]; first compound 15.81 µM) was 0.311, the relative viability ([2]; first compound 50 µM) was 0.331 and the relative viability ([3]; first compound 0.5 µM) was 0.617. For the same cell line, the relative viability ([3]; first compound 1.581 µM) was 0.569, the relative viability ([3]; first compound 5 µM) was 0.634 and the relative viability ([3]; first compound 15.81 µM) was 0.548. For the same cell line, the relative viability ([3]; first compound 50 µM) was 0.669, the relative viability ([4]; first compound 0.5 µM) was 0.809 and the relative viability ([4]; first compound 1.581 µM) was 0.862. For the same cell line, the relative viability ([4]; first compound 5 µM) was 0.839, the relative viability ([4]; first compound 15.81 µM) was 0.969 and the relative viability ([4]; first compound 50 µM) was 0.834.

ABC-1 showed a relative viability ([1]; first compound 0.5 µM) of 0.754, a relative viability ([1]; first compound 1.581 µM) of 0.917 and a relative viability ([1]; first compound 5 µM) of 0.797. The relative viability ([1]; first compound 15.81 µM) was 0.995, the relative viability ([1]; first compound 50 µM) was 0.711 and the relative viability ([3]; first compound 0.5 µM) was 0.469. The relative viability ([3]; first compound 1.581 µM) was 0.501, the relative viability ([3]; first compound 5 µM) was 0.467 and the relative viability ([3]; first compound 15.81 µM) was 0.417. It also gave a relative viability ([3]; first compound 50 µM) of 0.631, a relative viability ([4]; first compound 0.5 µM) of 0.761 and a relative viability ([4]; first compound 1.581 µM) of 0.984. The relative viability ([4]; first compound 5 µM) was 1.18, the relative viability ([4]; first compound 15.81 µM) was 1.25 and the relative viability ([4]; first compound 50 µM) was 1.28.

For COR-L23, the relative viability ([2]; first compound 0.5 µM) was 0.192, the relative viability ([2]; first compound 1.581 µM) was 0.189 and the relative viability ([2]; first compound 5 µM) was 0.21. It also gave a relative viability ([2]; first compound 15.81 µM) of 0.211, a relative viability ([2]; first compound 50 µM) of 0.186 and a relative viability ([3]; first compound 0.5 µM) of 0.756. The relative viability ([3]; first compound 1.581 µM) was 0.809, the relative viability ([3]; first compound 5 µM) was 0.822 and the relative viability ([3]; first compound 15.81 µM) was 0.91. For the same cell line, the relative viability ([3]; first compound 50 µM) was 0.85, the relative viability ([4]; first compound 0.5 µM) was 1.04 and the relative viability ([4]; first compound 1.581 µM) was 0.993. For the same cell line, the relative viability ([4]; first compound 5 µM) was 1.02, the relative viability ([4]; first compound 15.81 µM) was 0.994 and the relative viability ([4]; first compound 50 µM) was 1.18.
